{"source": "patent US20100160442A1", "about": "“FORMULATIONS FOR CANCER TREATMENT” (priority 2006, published 2010)", "type_in_all_cases": "physicochemical", "key": {"[1]": {"assay": "Compounding studies: time for drug substance to dissolve in 25% HPBCD", "description": "1. 300 mg of BA was added to 30 ml of a 25% HPBCD (containing 0.6% saline) and mixed using a magnetic stirrer. The drug substance dissolved in 4 hours. This is deemed to be an unacceptably long time for a viable manufacturing process and it was decided to evaluate a procedure involving dissolving the drug substance directly in the HPBCD. 2. In a second study 500 mg of BA dissolved in a 50 ml of a 25% HPBCD vehicle (no saline) in approx 90 minutes. The dissolution rate of BA was deemed to be a more acceptable time and provides some prospect for a viable larger scale process. Further excipients could be added after the drug substance has been dissolved."}, "[2]": {"assay": "Saturated solubility of BA in solvents, 25° C., absorbance at 320 nm", "settings": "thermodynamic from solid"}, "[3]": {"assay": "Saturated solubility of BA in self emulsifying lipid (SELF) samples, UV 320 nm", "description": "Saturated Solubility Test for Liquid SELF Samples: 2 ml of each liquid SELF was measured into 8 ml screw cap glass bottle using a Finnpipette. Aliquots of 50 mg of the API were then added until the mixture appeared to be saturated. The mixtures were sonicated for 30 minutes, and then observed to see if saturation had been maintained. Aliquots of 25 mg of the API were further added to non-saturated samples while stirring; these were sonicated for a further 30 minutes. This process was repeated until saturation was attained and maintained after sonication.\nThe liquid samples were then placed in the Variomatic water bath at 25° C. and left to stir for two nights. Each of the SELF samples was purged with nitrogen gas after use to minimize oxidation.\nThe saturated liquid samples were centrifuged at a speed of 4000 rpm for 10 minutes at 25° C.\nSaturated Solubility Test for Semi-Solid SELF Samples: Prior to dispensing, semi-solid lipids were melted in a dry oven at 60° C. The semi-solids were dispensed into screw cap bottles; aliquots of the API were added to attain and maintain saturation. The saturated semi-solids were left stirring at 60° C.\nThe following day the stirrer was switched off but heating was maintained at 60° C. for 1 hour. This was to allow the dispersed solid particles to sediment. 0.1 ml was taken from the top clear layer of each of the saturated semi-solid samples and diluted with acetonitrile.\nUV Analysis: The saturated samples and the lipid vehicles were diluted with acetonitrile at the same ratio. The samples were diluted with acetonitrile to obtain an absorbance between 0.1 to 1. The absorbance of the diluted lipid vehicles were used as the baseline for the absorbance readings of the active sample. The diluted samples were scanned at a fixed wavelength of 320 nm. The concentration of the API was calculated using the E^11 value, derived from the API concentration in acetonitrile.\nSaturated Solubility: Saturated solubility was carried out on the six SELF samples (Gattefosse) that were miscible with acetonitrile. These samples were stirred over two nights.\nSaturated solubility of freshly prepared lipid samples: Saturated solubility was carried out on each of the freshly prepared semi-solid lipid samples as described above. The results in table 9-8 are based on equilibration of saturated samples over two nights."}}, "note": "Values joined by “and” are separate entries in the source; they are usually repeats but may differ in a detail not shown here. Equal values may be shown once."}
{"smiles": "NC(=O)c1ccc(I)c([N+](=O)[O-])c1", "note": "[BA, 4-iodo-3-nitrobenzamide]", "values": [{"measurement": "Time for drug substance to dissolve", "setting": "[1]; 300 mg of BA in 30 ml of 25% HPBCD containing 0.6% saline, magnetic stirrer", "value": 4, "unit": "h"}, {"measurement": "Time for drug substance to dissolve", "setting": "[1]; 500 mg of BA in 50 ml of 25% HPBCD vehicle (no saline)", "value": "approx 90 minutes"}, {"measurement": "solubility", "setting": "[2]; 35% v/v DMA in Capmul PG-8, 25 °C, oil or lipid, 35% v/v DMA in Capmul PG-8, read from the graph of FIG. 2, read-out: Saturated solubility", "value": "~220", "unit": "mg/mL"}, {"measurement": "solubility", "setting": "[2]; solvent (liquid filled capsule vehicle), 25 °C, oil or lipid, 10% v/v DMA in Capmul, 25° C., read-out: BA Solubility", "value": 57, "unit": "mg/mL"}, {"measurement": "solubility", "setting": "[2]; solvent (liquid filled capsule vehicle), 25 °C, oil or lipid, 20% v/v DMA in Capmul, 25° C., read-out: BA Solubility", "value": 89, "unit": "mg/mL"}, {"measurement": "solubility", "setting": "[2]; solvent (liquid filled capsule vehicle), 25 °C, oil or lipid, 30% v/v DMA in Capmul, 25° C., read-out: BA Solubility", "value": 176, "unit": "mg/mL"}, {"measurement": "solubility", "setting": "[2]; solvent (liquid filled capsule vehicle), 25 °C, oil or lipid, 40% DMA in Capmul, 25° C., read-out: BA Solubility", "value": 276, "unit": "mg/mL"}, {"measurement": "solubility", "setting": "[2]; solvent (liquid filled capsule vehicle), 25 °C, oil or lipid, 40% v/v Transcutol in Capmul, 25° C., read-out: BA Solubility", "value": 73, "unit": "mg/mL"}, {"measurement": "solubility", "setting": "[2]; solvent (liquid filled capsule vehicle), 25 °C, oil or lipid, 100% Capmul, 25° C., read-out: BA Solubility", "value": 32, "unit": "mg/mL"}, {"measurement": "solubility", "setting": "[2]; solvent (liquid filled capsule vehicle), 25 °C, oil or lipid, 100% Labrafil, 25° C., read-out: BA Solubility", "value": 18, "unit": "mg/mL"}, {"measurement": "solubility", "setting": "[2]; solvent (liquid filled capsule vehicle), 25 °C, organic solvent or mixture, 20% v/v glycerol, 3% v/v water in PEG 400, 25° C., read-out: BA Solubility", "value": 192, "unit": "mg/mL"}, {"measurement": "solubility", "setting": "[2]; solvent (liquid filled capsule vehicle), 25 °C, organic solvent or mixture, 25% w/v Solutol in PEG 400, 25° C., read-out: BA Solubility", "value": 224, "unit": "mg/mL"}, {"measurement": "solubility", "setting": "[2]; solvent (liquid filled capsule vehicle), 25 °C, organic solvent or mixture, 25% w/v Vit E TPGS in PEG 400, 25° C., read-out: BA Solubility", "value": 204, "unit": "mg/mL"}, {"measurement": "solubility", "setting": "[2]; solvent (liquid filled capsule vehicle), 25 °C, organic solvent or mixture, 100% NMP, 25° C., read-out: BA Solubility", "value": 319, "unit": "mg/mL"}, {"measurement": "solubility", "setting": "[2]; solvent (liquid filled capsule vehicle), 25 °C, organic solvent or mixture, 100% PEG 400, 25° C., read-out: BA Solubility", "value": 186, "unit": "mg/mL"}, {"measurement": "solubility", "setting": "[2]; solvent (liquid filled capsule vehicle), 25 °C, organic solvent or mixture, 100% Transcutol, 25° C., read-out: BA Solubility", "value": 192, "unit": "mg/mL"}, {"measurement": "Solubility Enhancement vs. water", "setting": "[3]; SELF 27A", "value": 1074}, {"measurement": "Mean Conc.", "setting": "[3]; SELF 27A (Gattefosse, semi-solid), after 2 nights", "value": 215000, "unit": "µg/mL"}, {"measurement": "Mean Conc.", "setting": "[3]; SELF 27A (Gattefosse, semi-solid), after 2 nights, listed as API", "value": 214730, "unit": "µg/mL"}, {"measurement": "Solubility Enhancement vs. water", "setting": "[3]; SELF 27B", "value": 524}, {"measurement": "Mean Conc.", "setting": "[3]; SELF 27B (Gattefosse, semi-solid), after 2 nights", "value": 105000, "unit": "µg/mL"}, {"measurement": "Solubility Enhancement vs. water", "setting": "[3]; SELF 27D", "value": 699}, {"measurement": "Mean Conc.", "setting": "[3]; SELF 27D (Gattefosse, liquid), after 2 nights", "value": 140000, "unit": "µg/mL"}, {"measurement": "Solubility Enhancement vs. water", "setting": "[3]; SELF 27E", "value": "675 and 532"}, {"measurement": "Mean Conc.", "setting": "[3]; SELF 27E (Gattefosse, liquid), after 2 nights", "value": 107000, "unit": "µg/mL"}, {"measurement": "Solubility Enhancement vs. water", "setting": "[3]; SELF 27F", "value": 804}, {"measurement": "Mean Conc.", "setting": "[3]; SELF 27F (Gattefosse, liquid), after 2 nights", "value": 161000, "unit": "µg/mL"}, {"measurement": "Solubility Enhancement vs. water", "setting": "[3]; SELF 27G", "value": 695}, {"measurement": "Mean Conc.", "setting": "[3]; SELF 27G (Gattefosse, semi-solid), after 2 nights", "value": 139000, "unit": "µg/mL"}, {"measurement": "Mean Conc.", "setting": "[3]; Water", "value": 200, "unit": "µg/mL"}, {"measurement": "Mean Conc.", "setting": "[3]; freshly prepared SELF F1, after 2 nights", "value": 185000, "unit": "µg/mL"}, {"measurement": "Mean Conc.", "setting": "[3]; freshly prepared SELF F1, after 2 nights, listed as API", "value": 184760, "unit": "µg/mL"}, {"measurement": "Mean Conc.", "setting": "[3]; freshly prepared SELF F3, after 2 nights", "value": 87000, "unit": "µg/mL"}, {"measurement": "Mean Conc.", "setting": "[3]; freshly prepared SELF F4, after 2 nights", "value": 42000, "unit": "µg/mL"}, {"measurement": "Mean Conc.", "setting": "[3]; freshly prepared SELF F5, after 2 nights", "value": 75000, "unit": "µg/mL"}, {"measurement": "Mean Conc.", "setting": "[3]; freshly prepared SELF F6, after 2 nights", "value": 76000, "unit": "µg/mL"}, {"measurement": "Mean Conc.", "setting": "[3]; freshly prepared SELF F7, after 2 nights", "value": 135000, "unit": "µg/mL"}, {"measurement": "solubility", "setting": "[3]; water, read-out: Mean Conc.", "value": 0.2, "unit": "mg/mL"}]}
